From publication PMC10508264, “Exploring the antioxidant, antimicrobial, cytotoxic and biothermodynamic properties of novel morpholine derivative bioactive Mn(II), Co(II) and Ni(II) complexes – combined experimental and theoretical measurements towards DNA/BSA/SARS-CoV-2 3CL^Pro” (RSC Medicinal Chemistry, 2023)

What was measured:
Escherichia coli = assay: Agar disc diffusion, strain A; format: cell-based; set-up: Inhibition%: concentration or dose not given beside the values; settings: for Diameter of clear zone inhibition: control (DMSO) 6 mm
[1] = test system: Salmonella enterica serovar typhi; assay: Agar disc diffusion, strain B; format: cell-based; settings: for Diameter of clear zone inhibition: control 6 mm
[2] = test system: Salmonella enterica serovar typhi; assay: Agar disc diffusion, strain C; format: cell-based; settings: for Diameter of clear zone inhibition: control 6 mm
Pseudomonas aeruginosa = assay: Agar disc diffusion, strain D; format: cell-based; set-up: Inhibition%: concentration or dose not given beside the values; settings: for Diameter of clear zone inhibition: control 6 mm
Shigella flexneri = assay: Agar disc diffusion, strain E; format: cell-based; set-up: Inhibition%: concentration or dose not given beside the values; settings: for Diameter of clear zone inhibition: control 6 mm
Staphylococcus Aureus = assay: Agar disc diffusion, strain F; format: cell-based; set-up: Inhibition%: concentration or dose not given beside the values; settings: for Diameter of clear zone inhibition: control 6 mm
Bacillus cereu = assay: Agar disc diffusion, strain G; format: cell-based; set-up: Inhibition%: concentration or dose not given beside the values; settings: for Diameter of clear zone inhibition: control 6 mm
Aspergillus niger = assay: Agar disc diffusion, strain H; format: cell-based; set-up: Inhibition%: concentration or dose not given beside the values; settings: for Diameter of clear zone inhibition: control 6 mm
Candida albicans = assay: Agar disc diffusion, strain I; format: cell-based; set-up: Inhibition%: concentration or dose not given beside the values; settings: for Diameter of clear zone inhibition: control 6 mm
Mucor indicus = assay: Agar disc diffusion, strain J; format: cell-based; set-up: Inhibition%: concentration or dose not given beside the values; settings: for Diameter of clear zone inhibition: control 6 mm
[3] = DPPH radical scavenging assay; format: biochemical; settings: for % Inhibition, DPPH: 517 nm
[4] = Hydroxyl radical scavenging assay; format: biochemical; settings: for % Inhibition, hydroxyl radical: 230 nm
[5] = Nitric oxide scavenging assay; format: biochemical; settings: 546 nm
[6] = Superoxide scavenging assay; settings: 590 nm
A549 = assay: MTT cell viability assay, A549; format: cell-based, human; settings: A549, 72 h of exposure
HepG2 = assay: MTT cell viability assay, HepG2; format: cell-based, human; settings: HepG2, 72 h of exposure
MCF-7 = assay: MTT cell viability assay, MCF-7; format: cell-based, human; settings: MCF-7, 72 h of exposure
NHDF = assay: MTT cell viability assay, NHDF; format: cell-based, human; settings: NHDF normal cells, 72 h of exposure
Procedure: Cellular viability or metabolic properties can be measured using the MTT assay, which is a powerful and consistent method for cytotoxic properties. […] As per the colorimetric approach, the IC50 values of all compounds were evaluated via the percentage of cell viability or inhibition of growth.[128] […] However, complexes (2) and (3) were exposed to similar cytotoxic potential as the others,[129] which induces apoptosis due to their ability to produce ROS more efficiently than the free ligand. […] The cytotoxic effectiveness is dependent upon the DNA binding modalities, the structure–activity relationship, the drug concentrations, and the incubation period exposure.[130] […] Coordination between the ligands and metal ions results in charge equilibration, which diminishes the polarity of the metal ions and also causes the ability of the test complexes to pass via the cell membrane lipid layer in accordance with Tweedy's chelation theory. Thus, it inhibits the synthesis of cell-wall/protein/nucleic acid. Additionally, the results of DNA binding tests using these complexes, including gel electrophoresis, UV-vis spectral titration, hydrodynamics, emission, and CV findings, were in good agreement with the findings of cytotoxicity.[131] Expressions eqn (44) and (45) were applied to measure the percentage of growth inhibition and cell viability (Table 10). In this case, complexes (2) and (3) have been proven to have greater biological efficiency than the others. Cytotoxicity depends on not only the hydrophilicity or lipophilicity and permeability, which only assist the crossing of the cell membrane but are not responsible for cell death, but also on several other factors, including the Lewis acid character, overall stability, solubility, conductivity, compatibility, length of the metal–ligand bond, overall charge, electron density, reduction potential, dipole moment, intermolecular hydrogen bonds, proton transfer equilibrium, and coordination environment. These significant elements might also contribute to the increased biological activity. Moreover, cobalt is also generally not considered to be a very toxic element, and its coordination complexes have fascinating redox and magnetic characteristics that fit them for a remarkable range of biological and medical uses. […] Moreover, it is possible to intelligently adjust these factors to successfully target a desired pathway or biomolecule. Designing such well-controlled and selective cobalt-based therapeutics may benefit from a mechanistic understanding of the varied bioactivities of cobalt complexes. Thus, knowing the mechanism of action can direct the advancement of prospective cobalt treatments to clinical trial.[133]
2.5. Assessment of in-vitro antimicrobial properties
bacteria and 7 days for fungal strains.

CT-DNA [7] = assay: DNA thermal denaturation / biothermodynamic properties; format: binding; settings: adduct vs CT-DNA alone
CT-DNA [8] = assay: DNA binding by viscometric (hydrodynamic) technique
Procedure: The hydrodynamic properties were measured using an Ostwald viscometer with the help of a thermostat (25 ± 0.1 °C). The specific viscosity of DNA was also measured in the presence and absence of the test samples.[13,30]
Generally, when the major/minor groove binding, electrostatic, partial, and non-classical interaction modes are involved between chemical substances and DNA base pairs, the final DNA relative viscosity remains unchanged or undergoes a very negligible change due to reducing the contour length of DNA. When the intercalation binding modes are involved between a chemical substance and DNA base pairs via π–π stacking interactions and hydrophobic forces, an increase in relative viscosity is noted due to a rise in the contour length of DNA. Moreover, for the purpose of observing alterations in the CT-DNA helical structure, the viscosity findings for CT-DNA, various concentrations of chemical substances present, and EtBr were recorded. It was also noted that the absolute viscosity rose consistently along with the incremental concentration of each substance at the fixed DNA concentration. As a result of the strong binding mode of intercalation, the contour length of the double-helix DNA rises.[72] The obtained results are also compared with those of the classical intercalator (EB). The affinity interaction and their slope values were observed from the relative specific viscosity (η/η0)^1/3 plotted as a straight line contrasting [compound]/[DNA] and absolute specific viscosity of DNA in the presence or absence of chemical substances was evaluated using eqn (11) (Table 3). In the experiment, it was clearly noted that the slope values for all samples increased due to the rising binding affinity. The evaluated slopes were in the following sequence: (EB) 1.215 > (2) 0.860 > (3) 0.801 > (1) 0.662 > (HL) 0.490 (Fig. S21 ^† and Table 3). […] Due to the existence of 2,2′-bipyridine and the morpholine-fused aromatic planar systems, compounds can interact with DNA robustly via intercalation. The outcomes agreed with the observed outcomes of electronic absorption spectral characteristics.
11 [drawing 21] where η and η0 represent the specific viscosity of DNA in the presence of the complex and the specific viscosity of DNA alone, t0, tDNA and tcomplex represent the average flow time of the Tris–HCl buffer solution, the average flow time of the DNA alone solution, and the average flow time of DNA interacted with the samples, respectively. Error limit ± 2.5% (P < 0.025). […]
2.2.4. Assessment of DNA affinity by hydrodynamic technique
Hydrodynamic properties were performed using an Ostwald viscometer with the help of a thermostat (25 ± 0.1 °C). The experiment was performed of all samples, including ethidium bromide at various concentrations (20, 40, 60, 80, 100 µM) and each test compound was mixed with the deoxyribonucleic acid solution (100 µM) in the Ostwald viscometer. With a help of digital stopwatch, average flow time was gauged three times for each addition, and the specific viscosity of deoxyribonucleic acid was also measured in the presence and absence of test samples. […]
Also, the emission spectral titration for all compounds was also carried out at a fixed concentration (25 μM) of BSA with an incremental concentration of substances (0–25 µM)

For `NCC[C@H](O)C(=O)N[C@@H]1C[C@H](N)[C@@H](O[C@H]2O[C@H](CN)[C@@H](O)[C@H](O)[C@H]2O)[C@H](O)[C@H]1O[C@H]1O[C@H](CO)[C@@H](O)[C@H](N)[C@H]1O` [Amikacin, amikacin, reference compound], the Inhibition% (Escherichia coli) was 73%, the “Diameter of clear zone inhibition” value (Escherichia coli) was 22 mm and the Inhibition% [1] was 73%. The “Diameter of clear zone inhibition” value [1] was 22 mm, the Inhibition% [2] was 75% and the “Diameter of clear zone inhibition” value [2] was 24 mm. The Inhibition% (Pseudomonas aeruginosa) was 70%, the “Diameter of clear zone inhibition” value (Pseudomonas aeruginosa) was 20 mm and the Inhibition% (Shigella flexneri) was 70%. For the same molecule, the “Diameter of clear zone inhibition” value (Shigella flexneri) was 20 mm, the Inhibition% (Staphylococcus Aureus) was 70% and the “Diameter of clear zone inhibition” value (Staphylococcus Aureus) was 20 mm. The Inhibition% (Bacillus cereu) was 70% and the “Diameter of clear zone inhibition” value (Bacillus cereu) was 20 mm.
For `C[C@@H]1[C@H](O)[C@@H](C)/C=C/C=C/C=C/C=C/C=C/C=C/C=C/[C@H](O[C@@H]2O[C@H](C)[C@@H](O)[C@H](N)[C@@H]2O)C[C@@H]2O[C@](O)(C[C@@H](O)C[C@@H](O)[C@H](O)CC[C@@H](O)C[C@@H](O)CC(=O)O[C@H]1C)C[C@H](O)[C@H]2C(=O)O` [Amphotericin B, amphotericin B, reference compound], the Inhibition% (Aspergillus niger) was 60%, the “Diameter of clear zone inhibition” value (Aspergillus niger) was 15 mm and the Inhibition% (Candida albicans) was 65%. The “Diameter of clear zone inhibition” value (Candida albicans) was 17 mm, the Inhibition% (Mucor indicus) was 65% and the “Diameter of clear zone inhibition” value (Mucor indicus) was 17 mm.
With `O=C1O[C@H]([C@@H](O)CO)C(O)=C1O` [Ascorbic acid, ascorbic acid, reference compound] the IC50 [3] was 80 µM, the “% Inhibition, DPPH” value ([3]; 40 µM) was 41.63% and the “% Inhibition, DPPH” value ([3]; 80 µM) was 53.74%. For the same molecule, the “% Inhibition, DPPH” value ([3]; 120 µM) was 58.95%, the “% Inhibition, DPPH” value ([3]; 160 µM) was 70.86% and the “% Inhibition, DPPH” value ([3]; 200 µM) was 82.75%. For the same molecule, the “% Inhibition, DPPH” value ([3]; 240 µM) was 85.65%, the IC50 [4] was 160 µM and the “% Inhibition, hydroxyl radical” value ([4]; 40 µM) was 20.73%. The “% Inhibition, hydroxyl radical” value ([4]; 80 µM) was 36.46%, the “% Inhibition, hydroxyl radical” value ([4]; 120 µM) was 47.87% and the “% Inhibition, hydroxyl radical” value ([4]; 160 µM) was 59.65%. The “% Inhibition, hydroxyl radical” value ([4]; 200 µM) was 65.64%, the “% Inhibition, hydroxyl radical” value ([4]; 240 µM) was 78.83% and the “% Inhibition, nitric oxide” value ([5]; 40 µM) was 28.55%. For the same molecule, the “% Inhibition, nitric oxide” value ([5]; 80 µM) was 35.75%, the “% Inhibition, nitric oxide” value ([5]; 120 µM) was 43.65% and the “% Inhibition, nitric oxide” value ([5]; 160 µM) was 52.68%. The “% Inhibition, nitric oxide” value ([5]; 200 µM) was 63.72%, the “% Inhibition, nitric oxide” value ([5]; 240 µM) was 72.73% and the “% Inhibition, superoxide” value ([6]; 40 µM) was 29.64%. The “% Inhibition, superoxide” value ([6]; 80 µM) was 41.72%, the “% Inhibition, superoxide” value ([6]; 120 µM) was 55.63% and the “% Inhibition, superoxide” value ([6]; 160 µM) was 66.75%. For the same molecule, the “% Inhibition, superoxide” value ([6]; 200 µM) was 72.55% and the “% Inhibition, superoxide” value ([6]; 240 µM) was 84.85%.
For `N.N.[Cl][Pt][Cl]` [Cisplatin, cisplatin, reference compound], the IC50 (A549) was 31.9 ± 1.6 µM, the IC50 (HepG2) was 22.9 ± 1.1 µM and the IC50 (MCF-7) was 20.2 ± 1 µM. It also gave an IC50 (NHDF) of 26.9 ± 1.3 µM.
For `CC[n+]1c(-c2ccccc2)c2cc(N)ccc2c2ccc(N)cc21` [EB, ethidium bromide, reference compound], the ΔTm (CT-DNA [7]) was 13 °C, the “Slope of (η/η0)^1/3 vs [compound]/[DNA]” value (CT-DNA [8]) was 1.215 and the “Relative specific viscosity (η/η0)^1/3” value (CT-DNA [8]; [complex]/[DNA] = 0.2) was 1.01. The “Relative specific viscosity (η/η0)^1/3” value (CT-DNA [8]; [complex]/[DNA] = 0.4) was 1.35, the “Relative specific viscosity (η/η0)^1/3” value (CT-DNA [8]; [complex]/[DNA] = 0.6) was 1.63 and the “Relative specific viscosity (η/η0)^1/3” value (CT-DNA [8]; [complex]/[DNA] = 0.8) was 1.82. For the same molecule, the “Relative specific viscosity (η/η0)^1/3” value (CT-DNA [8]; [complex]/[DNA] = 1.0) was 1.99.
For `CC(=O)N1CCN(c2ccc(OCC3COC(Cn4ccnc4)(c4ccc(Cl)cc4Cl)O3)cc2)CC1` (centres unmarked) [Ketoconazole, ketoconazole, reference compound], the Inhibition% (Aspergillus niger) was 63%, the “Diameter of clear zone inhibition” value (Aspergillus niger) was 16 mm and the Inhibition% (Candida albicans) was 67%. For the same molecule, the “Diameter of clear zone inhibition” value (Candida albicans) was 18 mm, the Inhibition% (Mucor indicus) was 67% and the “Diameter of clear zone inhibition” value (Mucor indicus) was 18 mm.
In the case of `[H]/N=C(/N)N[C@H]1[C@H](O)[C@@H](O)[C@H](O[C@@H]2O[C@@H](C)[C@](O)(C=O)[C@H]2O[C@@H]2O[C@@H](CO)[C@H](O)[C@@H](O)[C@@H]2NC)[C@@H](N/C(N)=N\[H])[C@@H]1O` [Streptomycin, streptomycin, reference compound], the Inhibition% (Escherichia coli) is reported as 75%, the “Diameter of clear zone inhibition” value (Escherichia coli) is reported as 24 mm and the Inhibition% [1] is reported as 77%. For the same molecule, the “Diameter of clear zone inhibition” value [1] was 26 mm, the Inhibition% [2] was 75% and the “Diameter of clear zone inhibition” value [2] was 24 mm. The Inhibition% (Pseudomonas aeruginosa) was 71%, the “Diameter of clear zone inhibition” value (Pseudomonas aeruginosa) was 21 mm and the Inhibition% (Shigella flexneri) was 76%. The “Diameter of clear zone inhibition” value (Shigella flexneri) was 25 mm, the Inhibition% (Staphylococcus Aureus) was 71% and the “Diameter of clear zone inhibition” value (Staphylococcus Aureus) was 21 mm. For the same molecule, the Inhibition% (Bacillus cereu) was 71% and the “Diameter of clear zone inhibition” value (Bacillus cereu) was 21 mm.
